Data from the supplement of paper PMC11451515.

Test system: SEM cells
Experiment: cell viability relative to DMSO control; higher = less cytotoxic
Conditions: 48 h
Method in brief: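 In 1536-well plates, 5 μl of leukemia cells were seeded per well: 500 cells/well for NOMO1 or SEM and 1000 cells/well for P12-Ichikawa. Each line had first been adapted for at least four passages in each medium. Library compounds in DMSO were pin-dosed at 11 threefold concentrations between 47 μM and 0.79 nM, and CellTiter-Glo One luminescence was read after 48 h at 37°C. Viability is a per-plate percentage relative to DMSO wells, with cell-free wells as background.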

[1] = HPLM + 10% dialyzed FBS, 0.000781 µM
[2] = HPLM + 10% dialyzed FBS, 0.00234 µM
[3] = HPLM + 10% dialyzed FBS, 0.00702 µM
[4] = HPLM + 10% dialyzed FBS, 0.0211 µM
[5] = HPLM + 10% dialyzed FBS, 0.0632 µM
[6] = HPLM + 10% dialyzed FBS, 0.19 µM
[7] = HPLM + 10% dialyzed FBS, 0.569 µM
[8] = HPLM + 10% dialyzed FBS, 1.71 µM
[9] = HPLM + 10% dialyzed FBS, 5.12 µM
[10] = HPLM + 10% dialyzed FBS, 15.4 µM
[11] = HPLM + 10% dialyzed FBS, 46.1 µM
[12] = RPMI 5 mM glucose + 10% FBS, 0.000781 µM
[13] = RPMI 5 mM glucose + 10% FBS, 0.00234 µM
[14] = RPMI 5 mM glucose + 10% FBS, 0.00702 µM
[15] = RPMI 5 mM glucose + 10% FBS, 0.0211 µM
[16] = RPMI 5 mM glucose + 10% FBS, 0.0632 µM
[17] = RPMI 5 mM glucose + 10% FBS, 0.19 µM
[18] = RPMI 5 mM glucose + 10% FBS, 0.569 µM
[19] = RPMI 5 mM glucose + 10% FBS, 1.71 µM
[20] = RPMI 5 mM glucose + 10% FBS, 5.12 µM
[21] = RPMI 5 mM glucose + 10% FBS, 15.4 µM
[22] = RPMI 5 mM glucose + 10% FBS, 46.1 µM
[23] = RPMI 5 mM glucose + 10% dialyzed FBS, 0.000781 µM
[24] = RPMI 5 mM glucose + 10% dialyzed FBS, 0.00234 µM
[25] = RPMI 5 mM glucose + 10% dialyzed FBS, 0.00702 µM
[26] = RPMI 5 mM glucose + 10% dialyzed FBS, 0.0211 µM
[27] = RPMI 5 mM glucose + 10% dialyzed FBS, 0.0632 µM
[28] = RPMI 5 mM glucose + 10% dialyzed FBS, 0.19 µM
[29] = RPMI 5 mM glucose + 10% dialyzed FBS, 0.569 µM
[30] = RPMI 5 mM glucose + 10% dialyzed FBS, 1.71 µM
[31] = RPMI 5 mM glucose + 10% dialyzed FBS, 5.12 µM
[32] = RPMI 5 mM glucose + 10% dialyzed FBS, 15.4 µM
[33] = RPMI 5 mM glucose + 10% dialyzed FBS, 46.1 µM

Structure (SMILES) | cell viability [1] [%] | cell viability [2] [%] | cell viability [3] [%] | cell viability [4] [%] | cell viability [5] [%] | cell viability [6] [%] | cell viability [7] [%] | cell viability [8] [%] | cell viability [9] [%] | cell viability [10] [%] | cell viability [11] [%] | cell viability [12] [%] | cell viability [13] [%] | cell viability [14] [%] | cell viability [15] [%] | cell viability [16] [%] | cell viability [17] [%] | cell viability [18] [%] | cell viability [19] [%] | cell viability [20] [%] | cell viability [21] [%] | cell viability [22] [%] | cell viability [23] [%] | cell viability [24] [%] | cell viability [25] [%] | cell viability [26] [%] | cell viability [27] [%] | cell viability [28] [%] | cell viability [29] [%] | cell viability [30] [%] | cell viability [31] [%] | cell viability [32] [%] | cell viability [33] [%]
FC1=CC=C(SC/2=N/N3\C=N/C(=O)/C(=C3/C=C2)C4=C(Cl)C=CC=C4Cl)C(=C1)F | 79 | 85.9 | 89.7 | 91.1 | 92 | 88.1 | 98.5 | 89.7 | 88.1 | 76.7 | 44.9 | 97.5 | 104 | 106 | 101 | 108 | 101 | 102 | 112 | 93.8 | 62.9 | 20.1 | 91.7 | 78.6 | 95.7 | 93.4 | 103 | 87.5 | 83.3 | 79.3 | 77.2 | 73.4 | 33.6
OC1=CC2=C(C(=C1)O)C(=O)\C=C(/O2)C3=CC=CC=C3 | 89.7 | 92.5 | 93 | 107 | 94.5 | 112 | 94.4 | 115 | 85 | 61.9 | 8.24 | 88.2 | 103 | 106 | 94.2 | 105 | 101 | 92 | 104 | 77.2 | 35.8 | 4.9 | 85.8 | 96.6 | 95.3 | 91.5 | 99.9 | 97.7 | 97.3 | 111 | 94.5 | 59.6 | 11.9
COC(=O)[C@@H]1[C@H]2C[C@H]3c4[nH]c5ccccc5c4CCN3C[C@@H]2CC[C@@H]1O | 86.1 | 90.4 | 102 | 110 | 104 | 110 | 120 | 115 | 116 | 120 | 116 | 94.7 | 112 | 122 | 104 | 110 | 110 | 135 | 119 | 120 | 128 | 125 | 98.6 | 109 | 108 | 120 | 125 | 124 | 119 | 133 | 130 | 133 | 118
CNc1nccc(-c2cccnc2Oc2cc(C(=O)Nc3cccc(C(F)(F)F)c3)ccc2C)n1 | 97.2 | 101 | 115 | 113 | 118 | 104 | 122 | 113 | 109 | 90.2 | 97.8 | 106 | 92.6 | 99.8 | 103 | 111 | 103 | 113 | 97.4 | 95.9 | 72.4 | 92.9 | 95.8 | 97.4 | 103 | 107 | 119 | 125 | 103 | 107 | 97.9 | 82.9 | 97
CN(C)C1=CC=C(C=C1)C(C2=CC=C(C=C2)N(C)C)=C/3\C=C/C(/C=C3)=[N+](C)C | 101 | 98.3 | 113 | 98.1 | 116 | 9.97 | 4.77 | 4.38 | 4.51 | 1.71 | 1.2 |  |  |  |  |  |  |  |  |  |  |  | 104 | 113 | 100 | 85.9 | 76.1 | 8.49 | 4.28 | 2.86 | 4.04 | 1.22 | 0.974
CN1C[C@H]2c3ccccc3Oc3ccc(Cl)cc3[C@@H]2C1 | 75.4 | 76 | 68 | 76.3 | 80.2 | 84 | 94.5 | 90 | 96.3 | 85 | 6.31 | 89.6 | 80.8 | 90.6 | 86.7 | 71.4 | 91.7 | 92.4 | 90.6 | 95.8 | 79.3 | 5.32 | 73.5 | 83.7 | 76.6 | 83.3 | 73.5 | 105 | 107 | 103 | 85.3 | 79.1 | 6.04
Cc1ccc([S+](=O)([O-])N[C@@H](Cc2ccccc2)C(=O)CCl)cc1 | 91 | 58.6 | 93.2 | 93.3 | 93 | 105 | 96.4 | 109 | 103 | 85.5 | 25.3 | 87.4 | 53.1 | 94 | 97 | 95.8 | 114 | 95.6 | 108 | 104 | 87 | 22.1 | 80.5 | 49.8 | 100 | 104 | 88.6 | 95.4 | 93.6 | 107 | 100 | 94.3 | 23.4
CCOC(=O)C/1=C(O)/C(=O)N(CC2=CC=CC=C2)C1 | 97.8 | 98.5 | 98 | 91 | 110 | 108 | 108 | 120 | 111 | 106 | 86.1 | 99 | 104 | 94.4 | 90.1 | 111 | 111 | 99.4 | 99.2 | 98.3 | 94.9 | 83.9 | 119 | 113 | 105 | 125 | 109 | 111 | 108 | 125 | 108 | 106 | 93.7
CCC[C@H]1C[C@H](C(=O)N[C@@H]([C@@H]2O[C@@H](SC)[C@@H](O)[C@@H](O)[C@H]2O)[C@H](C)Cl)N(C)C1 | 79 | 90.9 | 91.2 | 95.1 | 100 | 94.1 | 130 | 106 | 109 | 98.4 | 99.9 | 101 | 114 | 117 | 101 | 132 | 112 | 112 | 117 | 110 | 126 | 124 | 66.4 | 84.7 | 94 | 87.3 | 97.7 | 89.6 | 110 | 94.3 | 97.7 | 110 | 101
NC\1=N\C(=O)N(\C=C1)[C@@H]2O[C@H](CO)[C@@H](O)[C@H]2O | 78.4 | 93.7 | 119 | 98.3 | 117 | 131 | 132 | 115 | 111 | 125 | 75.3 | 86.3 | 102 | 123 | 90.4 | 135 | 143 | 143 | 144 | 127 | 147 | 64.7 | 83.6 | 101 | 125 | 94.5 | 140 | 138 | 154 | 152 | 154 | 153 | 46.8
COCCCN1CCC(NC(=O)c2cc(Cl)c(N)c3c2OCC3)CC1 | 86.8 | 90.1 | 115 | 116 | 129 | 123 | 114 | 119 | 147 | 123 | 114 | 110 | 115 | 116 | 122 | 149 | 134 | 130 | 114 | 147 | 140 | 111 | 118 | 119 | 127 | 114 | 130 | 143 | 116 | 156 | 128 | 143 | 113
C[C@]1(c2nc3c(C(N)=O)cccc3[nH]2)CCCN1 | 63.8 | 74.1 | 75.9 | 89.1 | 78.3 | 81.3 | 74.5 | 90.6 | 87.2 | 80.3 | 63 | 81 | 62.7 | 68 | 88.8 | 83 | 87.4 | 89.7 | 85 | 98 | 98.1 | 59.8 | 68.5 | 63.7 | 64.9 | 87.2 | 71.9 | 79 | 84.5 | 75.6 | 76.7 | 76.7 | 51.5
CC(C)C1=C(O)C=C(O)C(=C1)C/2=N/NC(=O)N2C3=CC4=C(C=C3)[N](C)C=C4 |  |  |  |  |  |  |  |  |  |  |  | 123 | 112 | 116 | 101 | 72.5 | 22.7 | 25.2 | 20 | 23.6 | 20.7 | 15.4 | 113 | 112 | 111 | 114 | 75.2 | 34.2 | 29.6 | 23.8 | 25 | 25.3 | 22
O=C(Nc1cc2cc[nH]c2cn1)c1ccccc1 | 87.7 | 95.6 | 90.4 | 104 | 85.6 | 102 | 109 | 104 | 18.5 | 4.59 | 2.37 | 75.6 | 89.4 | 92.4 | 90.8 | 92.8 | 106 | 104 | 90 | 4.38 | 2.43 | 1 | 85.4 | 95.1 | 98.7 | 98.8 | 96.8 | 102 | 112 | 117 | 6.2 | 5.18 | 2.59
C[N]1C=C(C2=C1C=CC=C2)\C3=C(\C(=O)NC3=O)C4=C5CC(CN)CC[N]5C6=C4C=CC=C6 (stereo unspecified) | 88.4 | 97.6 | 92.2 | 107 | 75.4 | 102 | 108 | 99.5 | 86.3 | 19.3 | 3.63 | 100 | 108 | 98.1 | 107 | 66.6 | 111 | 95 | 86 | 79.1 | 31.8 | 3.05 | 89.9 | 108 | 105 | 107 | 86.1 | 95.8 | 111 | 107 | 88.4 | 38.6 | 7.7
CN(NC(=O)CC(=O)NN(C)C(=S)c1ccccc1)C(=S)c1ccccc1 | 84.1 | 89.7 | 98.9 | 83.7 | 15.8 | 4.39 | 3.48 | 3.79 | 4.13 | 3.69 | 4.7 | 112 | 116 | 117 | 120 | 18.3 | 6.81 | 5.75 | 5.74 | 6.44 | 5.8 | 5.63 | 78.8 | 75.8 | 80.7 | 93.1 | 10.5 | 5.14 | 4.03 | 4.74 | 4.6 | 4.37 | 5.18
